Values of other authors as cited in patent publication US10024828B2, “Adsorbent and analysis method using same” (Hitachi High-Technologies Corporation, priority 2013, dated 2018).

Conditions: source not stated (calculated or measured value)

log P (octanol-water partition coefficient)	Compound
0.14	Nc1ccn([C@@H]2O[C@H](CO)[C@@H](O)C2(F)F)c(=O)n1 [gemcitabine]
−0.57	O=c1[nH]cc(F)c(=O)[nH]1 [5-fluorouracil]
−0.91	CN(Cc1cnc2nc(N)nc(N)c2n1)c1ccc(C(=O)N[C@@H](CCC(=O)O)C(=O)O)cc1 [methotrexate]
